Bounds are passed on as bounds.

These results are taken from patent US8481531B2, “Bicyclic heterocyclyl derivatives as FGFR kinase inhibitors for therapeutic use” (Astex Therapeutics Ltd, priority 2009, dated 2013).

Assay [1] has as its target T1, Ba/F3-TEL-FGFR3 cells (Homo sapiens, UniProt P22607).
T1 construct: fused on or other part: P41212 (Transcription factor ETV6)
Briefly: Ba/F3-TEL-FGFR3 cell proliferation assay (Alamar Blue). Format: cell-based. Particulars: 72 hours; read-out: BaF3-TEL-FGFR3 prolif. As for the experimental part:
(§1) Ba/F3-TEL-FGFR3 & Ba/F3 (WT) Cell Proliferation Assays
(§2) Stably transfected Ba/F3-TEL-FGFR3 cells were plated out into black 96-well tissue culture plates with clear bottoms in RPMI medium containing 10% FBS and 0.25 mg/ml G418 at a density of 5×10^3 cells/well (200 μl per well). The parental wild-type Ba/F3 cells (DSMZ no.: ACC 300) were plated out into black 96-well tissue culture plates with clear bottoms in RPMI medium containing 10% FBS and 2 ng/ml mouse IL-3 (R&D Systems) at a density of 2.5×10^3 cells/well (200 μl per well). Plates were placed in an incubator overnight before adding the compounds the following day. Dilutions of compounds were made in DMSO starting at 10 mM and were diluted into the wells to give a final DMSO concentration of 0.1% in assay. Compounds were left on the cells for 72 hours before the plates were removed from the incubator and 20 μl of Alamar Blue™ (Biosource) was added to each well. Plates were placed in the incubator for 4-6 hours before reading plates at 535 nm (excitation)/590 nm (emission) on a Fusion plate reader (Packard). Where inhibition is high an IC50 can be determined.
For orientation: The colour change of resazurin is a common sign of viable cells or microbes.

Assay [2] deals with parental wild-type Ba/F3 cells. Briefly: Ba/F3 (WT) cell proliferation assay (Alamar Blue). It is filed as cell-based. Particulars: BaF3, 72 hours, read-out: BaF3 WT prolif; for IC50: with mouse IL-3. Here is the method: as §1, §2
In assay [3] the target is T2, VEGFR2 (Homo sapiens, UniProt P35968).
T2 construct: purchased Upstate
Briefly: VEGFR2 in vitro kinase inhibitory activity assay (TRF). Particulars: read-out: VEGFR2 IC50(μM) or % I; for IC50: 0.5 μM ATP, 1 hour. Format: biochemical. As for the experimental part:
(§3) FGFR3, VEGFR2 and PDGFR in vitro Kinase Inhibitory Activity Assays
(§4) Enzymes (from Upstate), prepared at 2× final concentration, were incubated with test compounds, biotinylated Flt3 substrate (biotin-VASSDNEYFYVDF) (Cell Signalling Technology Inc.) and ATP in the appropriate assay buffer (Table 1). The reaction was allowed to proceed for 3 hours (FGFR3), 1 hour (VEGFR2, PDGFR-beta) at room temperature on a plate shaker at 700 rpm before being stopped with 35 mM EDTA, pH 8 (FGFR3, VEGFR2) or 55 mM EDTA, pH 8 (PDGFR-beta). 5× detection mix (50 mM HEPES pH 7.5, 0.1% BSA, 11.34 nM Eu-anti-pY (PY20) (PerkinElmer) 74 nM SA-XL665 (Cisbio) for FGFR3, 50 mM HEPES, pH 7.5, 0.1% BSA, 11.34 nM Eu-anti-pY (PY20), 187.5 nM SA-XL665 for VEGFR2 and 50 mM HEPES, pH 7.5, 0.1% BSA, 11.34 nM Eu-anti-pY (PT66) (PerkinElmer), 375 nM SA-XL665 (Cisbio) for PDGFR-beta) was then added to each well and the plate sealed and incubated at room temperature for one hour on a plate shaker at 700 rpm. The plate was then read on a Packard Fusion plate reader or a BMG Pherastar both in TRF mode.

Assay [4] has as its target T3, FGFR3 (Homo sapiens, UniProt P22607).
T3 construct: purchased Upstate
Briefly: FGFR3 in vitro kinase inhibitory activity assay (TRF). Format: biochemical. Particulars: 8 μM ATP, 3 hours; read-out: FGFR3 IC50(μM) or % I. As for the experimental part: as §3, §4

T3 sequence (P22607 23-806): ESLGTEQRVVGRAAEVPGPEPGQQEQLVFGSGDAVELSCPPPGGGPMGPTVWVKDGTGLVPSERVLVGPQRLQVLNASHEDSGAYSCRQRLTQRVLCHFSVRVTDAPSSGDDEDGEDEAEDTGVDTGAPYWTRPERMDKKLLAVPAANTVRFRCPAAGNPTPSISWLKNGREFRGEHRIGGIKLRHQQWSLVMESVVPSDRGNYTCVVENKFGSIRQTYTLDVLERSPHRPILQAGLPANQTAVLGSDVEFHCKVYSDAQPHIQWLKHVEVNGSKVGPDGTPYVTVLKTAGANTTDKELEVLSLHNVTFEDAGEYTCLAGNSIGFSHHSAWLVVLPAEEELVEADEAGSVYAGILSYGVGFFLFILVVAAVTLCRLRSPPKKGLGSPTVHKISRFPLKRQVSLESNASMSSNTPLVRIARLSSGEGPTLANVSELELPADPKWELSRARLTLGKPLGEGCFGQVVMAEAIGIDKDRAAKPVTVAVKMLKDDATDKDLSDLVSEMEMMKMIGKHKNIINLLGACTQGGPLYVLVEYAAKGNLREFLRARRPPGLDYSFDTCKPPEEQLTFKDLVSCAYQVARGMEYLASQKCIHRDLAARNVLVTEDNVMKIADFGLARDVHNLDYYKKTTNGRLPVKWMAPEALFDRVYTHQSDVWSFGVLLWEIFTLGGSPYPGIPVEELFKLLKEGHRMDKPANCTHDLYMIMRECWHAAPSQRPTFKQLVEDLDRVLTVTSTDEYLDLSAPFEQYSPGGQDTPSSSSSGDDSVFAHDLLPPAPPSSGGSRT
T2 sequence (P35968 20-1356): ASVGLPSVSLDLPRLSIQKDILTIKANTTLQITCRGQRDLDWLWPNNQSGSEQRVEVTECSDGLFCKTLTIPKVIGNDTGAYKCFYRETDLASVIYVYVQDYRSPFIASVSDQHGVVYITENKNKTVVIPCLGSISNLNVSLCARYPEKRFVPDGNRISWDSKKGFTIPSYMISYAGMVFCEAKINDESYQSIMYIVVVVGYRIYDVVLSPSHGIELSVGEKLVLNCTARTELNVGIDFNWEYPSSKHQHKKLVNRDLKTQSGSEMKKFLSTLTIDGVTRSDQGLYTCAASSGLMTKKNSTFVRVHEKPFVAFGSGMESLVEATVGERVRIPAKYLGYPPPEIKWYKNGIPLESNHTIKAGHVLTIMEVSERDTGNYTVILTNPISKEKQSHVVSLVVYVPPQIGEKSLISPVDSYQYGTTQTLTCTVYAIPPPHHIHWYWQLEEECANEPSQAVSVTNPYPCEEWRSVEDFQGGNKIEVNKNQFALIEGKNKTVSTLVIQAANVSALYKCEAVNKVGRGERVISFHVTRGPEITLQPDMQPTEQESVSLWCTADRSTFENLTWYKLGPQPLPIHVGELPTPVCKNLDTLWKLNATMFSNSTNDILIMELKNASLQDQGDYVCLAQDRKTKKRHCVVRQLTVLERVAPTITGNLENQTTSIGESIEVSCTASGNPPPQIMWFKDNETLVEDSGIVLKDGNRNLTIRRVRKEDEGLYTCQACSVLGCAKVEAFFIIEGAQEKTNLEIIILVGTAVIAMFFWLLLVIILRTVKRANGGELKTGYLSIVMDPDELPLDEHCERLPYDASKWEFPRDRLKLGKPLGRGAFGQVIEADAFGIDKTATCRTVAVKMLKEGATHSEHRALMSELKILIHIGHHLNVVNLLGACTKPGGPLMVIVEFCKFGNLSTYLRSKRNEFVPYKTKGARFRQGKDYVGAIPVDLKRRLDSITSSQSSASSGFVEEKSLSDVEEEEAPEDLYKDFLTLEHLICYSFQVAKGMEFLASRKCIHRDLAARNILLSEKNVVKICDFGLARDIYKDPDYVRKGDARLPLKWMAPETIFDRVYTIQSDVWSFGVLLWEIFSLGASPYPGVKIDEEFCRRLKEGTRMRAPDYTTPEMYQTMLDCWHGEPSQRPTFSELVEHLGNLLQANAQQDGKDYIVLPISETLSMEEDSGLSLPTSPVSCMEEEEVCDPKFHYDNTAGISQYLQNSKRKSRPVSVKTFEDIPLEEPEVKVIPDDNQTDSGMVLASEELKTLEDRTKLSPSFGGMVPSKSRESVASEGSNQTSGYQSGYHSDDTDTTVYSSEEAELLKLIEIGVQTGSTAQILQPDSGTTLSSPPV
T1 sequence (P22607 whole entry, change not shown, the tested form may be a part): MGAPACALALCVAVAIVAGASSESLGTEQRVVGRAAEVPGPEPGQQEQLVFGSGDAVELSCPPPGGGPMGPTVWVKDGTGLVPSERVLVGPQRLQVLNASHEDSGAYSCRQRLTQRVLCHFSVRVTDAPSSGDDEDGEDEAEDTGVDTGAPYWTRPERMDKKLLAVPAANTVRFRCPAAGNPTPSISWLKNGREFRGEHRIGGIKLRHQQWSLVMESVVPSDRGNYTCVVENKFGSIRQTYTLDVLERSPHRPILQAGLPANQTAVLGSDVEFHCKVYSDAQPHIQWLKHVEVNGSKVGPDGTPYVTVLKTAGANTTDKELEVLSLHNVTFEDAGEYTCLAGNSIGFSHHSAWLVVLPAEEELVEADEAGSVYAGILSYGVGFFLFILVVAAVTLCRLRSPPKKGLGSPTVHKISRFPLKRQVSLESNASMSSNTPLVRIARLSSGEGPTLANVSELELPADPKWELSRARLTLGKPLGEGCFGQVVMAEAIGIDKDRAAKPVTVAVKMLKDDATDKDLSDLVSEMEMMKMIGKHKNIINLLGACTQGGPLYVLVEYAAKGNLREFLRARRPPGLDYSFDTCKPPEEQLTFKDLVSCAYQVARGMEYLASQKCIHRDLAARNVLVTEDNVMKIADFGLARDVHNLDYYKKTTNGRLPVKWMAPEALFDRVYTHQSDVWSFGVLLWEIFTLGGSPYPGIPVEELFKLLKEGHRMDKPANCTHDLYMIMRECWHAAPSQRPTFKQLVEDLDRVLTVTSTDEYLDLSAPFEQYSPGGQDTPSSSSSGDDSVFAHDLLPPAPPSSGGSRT

On to `COCCON=Cc1ccn2c(-c3cccc(NC(=O)NCC(F)(F)F)c3)cnc2c1` [Compound 1-1, 1-(3-{7-[(2-Methoxy-ethoxyimino)-methyl]-imidazo[1,2-a]pyridin-3-yl}-phenyl)-3-(2,2,2-trifluoro-ethyl)-urea], for which the GI50 in assay [1] came to 210 nM. Also, the IC50 was 310 nM in assay [2], 0.635 µM in assay [3] and 0.0194 µM in assay [4].
On to `COCCOCCON=Cc1ccn2c(-c3cccc(NC(=O)NCC(F)(F)F)c3)cnc2c1` [Compound 1-2, 1-[3-(7-{[2-(2-Methoxy-ethoxy)-ethoxyimino]-methyl}-imidazo[1,2-a]pyridin-3-yl)-phenyl]-3-(2,2,2-trifluoro-ethyl)-urea], for which, in assay [1], the GI50 stood at 290 nM. The IC50 amounted to 1600 nM in assay [2], 0.885 µM in assay [3] and 0.019 µM in assay [4].
The corresponding values for `O=C(NCC(F)(F)F)Nc1cccc(-c2cnc3cc(C=NOCCCN4CCOCC4)ccn23)c1` [Compound 1-3, 1-(3-{7-[(3-Morpholin-4-yl-propoxyimino)-methyl]-imidazo[1,2-a]pyridin-3-yl}-phenyl)-3-(2,2,2-trifluoro-ethyl)-urea] are 310 nM, 2800 nM, 0.682 µM and 0.018 µM.
For `O=C(NCC(F)(F)F)Nc1cccc(-c2cnc3cc(C=NOCc4ccncc4)ccn23)c1` [Compound 1-4, 1-(3-{7-[(Pyridin-4-ylmethoxyimino)-methyl]-imidazo[1,2-a]pyridin-3-yl}-phenyl)-3-(2,2,2-trifluoro-ethyl)-urea], in assay [1], the GI50 came to 260 nM. Moreover, the values for the IC50 in assay [2], in assay [3] and in assay [4] were 5300 nM, 0.23 µM and 0.014 µM, respectively.
With `O=C(NCC(F)(F)F)Nc1cccc(-c2cnc3cc(C=NOc4ncccn4)ccn23)c1` [Compound 1-5, 1-(3-{7-[(Pyrimidin-2-yloxyimino)-methyl]-imidazo[1,2-a]pyridin-3-yl}-phenyl)-3-(2,2,2-trifluoro-ethyl)-urea], the GI50 in assay [1] was found to be 2300 nM. The inhibition at 10 µM in assay [2] (Mus musculus) was 10%. The IC50 is 0.877 µM in assay [3] and 0.0313 µM in assay [4].
Regarding `O=C(NCC(F)(F)F)Nc1cccc(-c2cnc3cc(C=NOCc4ccccn4)ccn23)c1` [Compound 1-6, 1-(3-{7-[(Pyridin-2-ylmethoxyimino)-methyl]-imidazo[1,2-a]pyridin-3-yl}-phenyl)-3-(2,2,2-trifluoro-ethyl)-urea], the IC50 in assay [3] came out at 0.48 µM; in assay [4], 0.013 µM.
As to `O=C(NCC(F)(F)F)Nc1cccc(-c2cnc3cc(C=NOCCOCCO)ccn23)c1` [Compound 1-7, 1-[3-(7-{[2-(2-Hydroxy-ethoxy)-ethoxyimino]-methyl}-imidazo[1,2-a]pyridin-3-yl)-phenyl]-3-(2,2,2-trifluoro-ethyl)-urea], the GI50 in assay [1] amounted to 420 nM. Also, in assay [2] (Mus musculus, % at 3.00 μM), the inhibition at 3 µM amounted to 20%. Besides, the IC50 in assay [3] was found to be 0.584 µM; in assay [4] it was 0.0185 µM.
For the molecule `O=C(NCC(F)(F)F)Nc1cccc(-c2cnc3cc(C=NOCc4ccc(Cl)s4)ccn23)c1` [Compound 1-8, 1-(3-{7-[(5-Chloro-thiophen-2-ylmethoxyimino)-methyl]-imidazo[1,2-a]pyridin-3-yl}-phenyl)-3-(2,2,2-trifluoro-ethyl)-urea], the GI50 in assay [1] worked out at 17.5 nM. The IC50 is 828 nM in assay [2], greater than 10 µM in assay [3] and 0.215 µM in assay [4].
As for `Cc1nc(CON=Cc2ccn3c(-c4cccc(NC(=O)NCC(F)(F)F)c4)cnc3c2)cs1` [Compound 1-9, 1-(3-{7-[(2-Methyl-thiazol-4-ylmethoxyimino)-methyl]-imidazo[1,2-a]pyridin-3-yl}-phenyl)-3-(2,2,2-trifluoro-ethyl)-urea], the IC50 worked out at 0.68 µM in assay [3] and 0.014 µM in assay [4].
As for `CN1CCC(ON=Cc2ccn3c(-c4cccc(NC(=O)NCC(F)(F)F)c4)cnc3c2)CC1` [Compound 1-10, 1-(3-{7-[(1-Methyl-piperidin-4-yloxyimino)-methyl]-imidazo[1,2-a]pyridin-3-yl}-phenyl)-3-(2,2,2-trifluoro-ethyl)-urea], in assay [1], the GI50 is 140 nM. Moreover, the results for the IC50 in assay [2], in assay [3] and in assay [4] were 2800 nM, 0.27 µM and 0.019 µM, respectively.
For `O=C(NCC(F)(F)F)Nc1cccc(-c2cnc3cc(C=NOCC4CC4)ccn23)c1` [Compound 1-11, 1-{3-[7-(Cyclopropylmethoxyimino-methyl)-imidazo[1,2-a]pyridin-3-yl]-phenyl}-3-(2,2,2-trifluoro-ethyl)-urea], in assay [1], the GI50 turned out to be 600 nM. In addition, the IC50 stood at 880 nM in assay [2] and 0.027 µM in assay [4]. In addition, the inhibition at 1 µM in assay [3] (1 h, % I at 1 μM) worked out at 46%.
Take `Cc1noc(C)c1CON=Cc1ccn2c(-c3cccc(NC(=O)NCC(F)(F)F)c3)cnc2c1` [Compound 1-12, 1-(3-{7-[(3,5-Dimethyl-isoxazol-4-ylmethoxyimino)-methyl]-imidazo[1,2-a]pyridin-3-yl}-phenyl)-3-(2,2,2-trifluoro-ethyl)-urea]: the GI50 in assay [1] came out at 240 nM. The inhibition at 10 µM in assay [2] (Mus musculus) worked out at 38%. The IC50 in assay [3] is 0.54 µM; in assay [4], 0.018 µM.
In the case of `Cc1cc(CON=Cc2ccn3c(-c4cccc(NC(=O)NCC(F)(F)F)c4)cnc3c2)n(C)n1` [Compound 1-13, 1-(3-{7-[(2,5-Dimethyl-2H-pyrazol-3-ylmethoxyimino)-methyl]-imidazo[1,2-a]pyridin-3-yl}-phenyl)-3-(2,2,2-trifluoro-ethyl)-urea], the GI50 in assay [1] was determined as 300 nM. In addition, the inhibition at 1 µM in assay [2] (Mus musculus, % at 1.00 μM) turned out to be 46%. For the same molecule, the values for the IC50 in assay [3] and in assay [4] were 0.66 µM and 0.03 µM, respectively.
As to `Cn1cncc1CO/N=C/c1ccn2c(-c3cccc(NC(=O)NCC(F)(F)F)c3)cnc2c1` [Compound 1-20, 1-(3-{7-[(3-Methyl-3H-imidazol-4-ylmethoxyimino)-methyl]-imidazo[1,2-a]pyridin-3-yl}-phenyl)-3-(2,2,2-trifluoro-ethyl)-urea], the results for the IC50 in assay [3] and in assay [4] were 0.36 µM and 0.0071 µM, respectively.
For `CO/N=C(\C)c1ccn2c(-c3cccc(NC(=O)NCC(F)(F)F)c3)cnc2c1` [Compound 1-22] the same measures were 0.092 µM and 0.0051 µM.
For `COCCN(C)CCON=Cc1ccn2c(-c3cccc(NC(=O)NCC(F)(F)F)c3)cnc2c1` [Compound 1-40, 1-{3-[7-({2-[(2-Methoxy-ethyl)-methyl-amino]-ethoxyimino}-methyl)-imidazo[1,2-a]pyridin-3-yl]-phenyl}-3-(2,2,2-trifluoro-ethyl)-urea] the same measures were 0.72 µM and 0.028 µM.
As for `C/C(=N\OCCCN1CCOCC1)c1ccn2c(-c3cccc(NC(=O)NCC(F)(F)F)c3)cnc2c1` [Compound 1-44, 1-[3-(7-{1-3-Morpholin-4-yl-propoxyimino-ethyl}-imidazo[1,2-a]pyridin-3-yl)-phenyl]-3-(2,2,2-trifluoro-ethyl)-urea], the IC50 was 0.059 µM in assay [3] and 0.0038 µM in assay [4].
For `CC(C)Oc1cc(NC(=O)NCC(F)(F)F)cc(-c2cnc3cc(/C(=N\OCCO)C4CC4)ccn23)c1` [Compound 1-64, 1-[3-(7-{Cyclopropyl-[(Z)-2-hydroxyethoxyimino]-methyl}-imidazo[1,2-a]pyridin-3-yl)-5-isopropoxy-phenyl]-3-(2,2,2-trifluoro-ethyl)-urea], in assay [1], the GI50 amounted to 500 nM. The IC50 in assay [3] turned out to be 1.2 µM; in assay [4], 0.03 µM.
